Counter-ions that a name gives are not always drawn.
What was measured:
[1] = target: PI3Kγ (p110γ) Recombinant Human Protein (Homo sapiens (Human), UniProt P48736); assay: PI3K-γ Scintillation Proximity Assay; type: biochemical; details: read-out: PI3K-gamma SPA IC50
In short: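 Recombinant human p110γ (13 nM) with 20 μM PIP2 and 2 μM ATP plus 0.5 μCi [γ-33P]ATP in 20 mM MOPS pH 6.7, 10 mM MgCl2, 5 mM DTT, 0.03% CHAPS, 2% DMSO, 120 min at room temperature. Product captured on WGA SPA beads and counted; IC50 fitted from % of solvent control versus log concentration.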

[2] = test system: Phosphorylated Ribosomal Protein S6 (RPS6) in THP-1 cells; assay: THP-1 RPS6 ELISA Assay; type: cell-based, Human; details: Homo sapiens, MCP-1 stimulated, phospho-RPS6 ELISA, read-out: THP p-RPS6 ELISA IC50
In short: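 Serum-starved THP-1 cells (2×10^5/well, RPMI) preincubated with compound 2 h at 37° C, then stimulated with 10 nM MCP-1 for 15 min. Lysates assayed by phospho-RPS6 ELISA, absorbance 450 nm (540 nm correction); IC50 from percent inhibition versus log concentration.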

[3] = target: PI3Kδ (p110δ/p85α) Recombinant Human Protein (Homo sapiens (Human), UniProt O00329); assay: PI3Kδ Scintillation Proximity Assay; type: biochemical; details: read-out: PI3K-delta SPA IC50
Sequence of PI3Kδ (p110δ/p85α) Recombinant Human Protein (O00329 whole entry): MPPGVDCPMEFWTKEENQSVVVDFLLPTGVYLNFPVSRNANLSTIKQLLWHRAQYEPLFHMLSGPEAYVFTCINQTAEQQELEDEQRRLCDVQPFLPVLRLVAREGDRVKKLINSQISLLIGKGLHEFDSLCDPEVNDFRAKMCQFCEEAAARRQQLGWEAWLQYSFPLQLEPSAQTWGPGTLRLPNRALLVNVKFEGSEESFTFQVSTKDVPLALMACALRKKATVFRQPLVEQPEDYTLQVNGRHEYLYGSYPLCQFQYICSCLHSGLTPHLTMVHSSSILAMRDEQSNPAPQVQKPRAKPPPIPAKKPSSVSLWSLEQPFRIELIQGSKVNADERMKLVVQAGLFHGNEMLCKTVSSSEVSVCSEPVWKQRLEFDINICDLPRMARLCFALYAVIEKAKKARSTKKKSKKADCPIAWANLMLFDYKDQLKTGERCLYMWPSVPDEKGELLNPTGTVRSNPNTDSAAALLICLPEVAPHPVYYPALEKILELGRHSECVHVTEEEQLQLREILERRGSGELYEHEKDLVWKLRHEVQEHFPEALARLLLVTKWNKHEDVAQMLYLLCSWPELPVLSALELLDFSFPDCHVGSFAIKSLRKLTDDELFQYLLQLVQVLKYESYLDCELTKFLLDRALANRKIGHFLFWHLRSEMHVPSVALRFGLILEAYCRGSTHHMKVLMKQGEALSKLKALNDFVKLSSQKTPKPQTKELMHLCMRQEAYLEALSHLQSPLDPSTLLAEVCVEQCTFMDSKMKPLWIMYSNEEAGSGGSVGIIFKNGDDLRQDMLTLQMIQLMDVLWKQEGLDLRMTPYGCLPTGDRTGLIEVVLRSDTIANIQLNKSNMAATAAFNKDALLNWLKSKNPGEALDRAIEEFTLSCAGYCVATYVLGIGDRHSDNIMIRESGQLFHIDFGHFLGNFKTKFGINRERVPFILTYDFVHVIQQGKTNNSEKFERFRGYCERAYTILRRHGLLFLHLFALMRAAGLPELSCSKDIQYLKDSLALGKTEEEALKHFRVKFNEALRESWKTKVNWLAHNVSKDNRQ
Sequence of PI3Kδ (p110δ/p85α) Recombinant Human Protein (P27986 whole entry partner): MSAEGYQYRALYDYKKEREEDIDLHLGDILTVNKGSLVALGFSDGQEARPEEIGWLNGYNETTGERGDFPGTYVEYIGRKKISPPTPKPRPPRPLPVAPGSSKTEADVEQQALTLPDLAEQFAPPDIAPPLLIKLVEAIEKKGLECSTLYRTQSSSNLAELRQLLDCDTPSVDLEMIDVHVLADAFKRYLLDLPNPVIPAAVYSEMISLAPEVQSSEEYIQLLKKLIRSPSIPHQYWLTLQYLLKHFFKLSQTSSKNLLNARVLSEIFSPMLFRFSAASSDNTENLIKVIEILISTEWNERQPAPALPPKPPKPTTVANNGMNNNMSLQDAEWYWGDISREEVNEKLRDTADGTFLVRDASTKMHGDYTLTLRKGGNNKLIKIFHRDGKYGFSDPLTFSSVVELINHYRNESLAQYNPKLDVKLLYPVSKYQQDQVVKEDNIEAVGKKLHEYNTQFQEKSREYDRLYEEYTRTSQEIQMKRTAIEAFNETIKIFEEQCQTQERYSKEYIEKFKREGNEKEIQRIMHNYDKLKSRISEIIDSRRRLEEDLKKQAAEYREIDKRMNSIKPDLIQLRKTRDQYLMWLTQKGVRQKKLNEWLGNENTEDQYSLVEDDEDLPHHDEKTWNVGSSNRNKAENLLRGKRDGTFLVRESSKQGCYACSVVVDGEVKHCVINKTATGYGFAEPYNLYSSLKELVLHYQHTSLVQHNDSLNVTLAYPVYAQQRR
In short: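 Recombinant human p110δ/p85α (3.4 nM) with 20 μM PIP2 and 2 μM ATP plus [γ-33P]ATP, in 20 mM MOPS pH 6.7, 10 mM MgCl2, 5 mM DTT, 0.03% CHAPS, 2% DMSO; 120 min at room temperature. Product captured on WGA SPA beads, scintillation counted; IC50 from percent-of-control curves.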

Sequence of PI3Kγ (p110γ) Recombinant Human Protein (P48736 whole entry): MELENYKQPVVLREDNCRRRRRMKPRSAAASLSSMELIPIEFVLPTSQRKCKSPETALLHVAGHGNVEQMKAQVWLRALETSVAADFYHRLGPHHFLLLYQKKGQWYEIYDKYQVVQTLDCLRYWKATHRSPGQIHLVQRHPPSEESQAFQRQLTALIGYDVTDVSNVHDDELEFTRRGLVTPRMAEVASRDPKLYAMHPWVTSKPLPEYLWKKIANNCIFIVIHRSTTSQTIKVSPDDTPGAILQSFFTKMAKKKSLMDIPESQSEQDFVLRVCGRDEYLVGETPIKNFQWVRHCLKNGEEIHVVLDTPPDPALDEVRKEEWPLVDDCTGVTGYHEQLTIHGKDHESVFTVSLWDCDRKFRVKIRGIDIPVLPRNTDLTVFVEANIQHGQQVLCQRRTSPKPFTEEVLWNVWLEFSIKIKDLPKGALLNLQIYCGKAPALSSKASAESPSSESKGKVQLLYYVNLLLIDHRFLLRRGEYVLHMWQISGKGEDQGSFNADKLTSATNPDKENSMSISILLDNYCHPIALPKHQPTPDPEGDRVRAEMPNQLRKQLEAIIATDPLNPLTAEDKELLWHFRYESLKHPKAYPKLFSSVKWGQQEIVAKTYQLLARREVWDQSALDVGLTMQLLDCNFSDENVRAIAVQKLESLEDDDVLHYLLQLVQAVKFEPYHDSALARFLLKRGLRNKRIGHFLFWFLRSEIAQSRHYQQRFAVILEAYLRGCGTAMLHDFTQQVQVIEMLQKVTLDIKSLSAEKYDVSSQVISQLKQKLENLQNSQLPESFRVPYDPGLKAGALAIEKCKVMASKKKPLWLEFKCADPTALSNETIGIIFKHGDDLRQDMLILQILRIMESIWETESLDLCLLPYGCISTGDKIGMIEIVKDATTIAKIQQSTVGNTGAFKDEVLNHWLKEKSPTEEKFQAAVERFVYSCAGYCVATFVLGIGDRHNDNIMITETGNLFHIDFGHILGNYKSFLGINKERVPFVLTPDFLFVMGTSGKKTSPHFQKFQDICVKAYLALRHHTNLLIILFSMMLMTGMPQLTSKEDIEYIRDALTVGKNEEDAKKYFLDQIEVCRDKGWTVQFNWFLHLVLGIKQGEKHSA

SMILES | IC50 [1] | IC50 [2] | IC50 [3]
CCc1[nH]c(-c2cc(-c3cncc(N4CCOCC4)c3)ccn2)nc1C [Example 105, 4-(2′-(5-Ethyl-4-methyl-1H-imidazol-2-yl)-3,4′-bipyridin-5-yl)morpholine] | ≤ 100 nM | ≤ 300 nM | ≤ 100 nM
CS(=O)(=O)c1cncc(-c2ccnc(-c3ncc(C4CCCCC4)[nH]3)c2)c1 [Example 106, 2′-(5-Cyclohexyl-1H-imidazol-2-yl)-5-(methylsulfonyl)-3,4′-bipyridine Trifluoroacetate Salt] | ≤ 50 nM | ≤ 300 nM | ≤ 50 nM
Cc1cnc(-c2cc(-c3cncc(S(C)(=O)=O)c3)ccn2)[nH]1 [Example 107, 2′-(5-Methyl-1H-imidazol-2-yl)-5-(methylsulfonyl)-3,4′-bipyridine trifluoroacetate salt] | ≤ 100 nM | ≤ 300 nM | ≤ 100 nM
Cc1nc(-c2cc(-c3cncc(S(C)(=O)=O)c3)ccn2)[nH]c1C [Example 108, 2′-(4,5-Dimethyl-1H-imidazol-2-yl)-5-(methylsulfonyl)-3,4′-bipyridine trifluoroacetate salt] | ≤ 50 nM | ≤ 300 nM | ≤ 50 nM
CS(=O)(=O)c1cncc(-c2ccnc(-c3ncc(C(F)(F)F)[nH]3)c2)c1 [Example 109, 5-(Methylsulfonyl)-2′-(5-(trifluoromethyl)-1H-imidazol-2-yl)-3,4′-bipyridine trifluoroacetate salt] | ≤ 50 nM | 300 to 1000 nM | ≤ 50 nM
CCc1cnc(-c2cc(-c3cncc(S(C)(=O)=O)c3)ccn2)[nH]1 [Example 110, 2′-(5-Ethyl-1H-imidazol-2-yl)-5-(methylsulfonyl)-3,4′-bipyridine trifluoroacetate salt] | ≤ 50 nM | 300 to 1000 nM | ≤ 50 nM
CC(C)c1cnc(-c2cc(-c3cncc(S(C)(=O)=O)c3)ccn2)[nH]1 [Example 111, 2′-(5-Isopropyl-1H-imidazol-2-yl)-5-(methylsulfonyl)-3,4′-bipyridine trifluoroacetate salt] | ≤ 50 nM | 300 to 1000 nM | ≤ 50 nM
CS(=O)(=O)c1cncc(-c2ccnc(-c3ncc(C4CC4)[nH]3)c2)c1 [Example 112, 2′-(5-Cyclopropyl-1H-imidazol-2-yl)-5-(methylsulfonyl)-3,4′-bipyridine trifluoroacetate salt] | ≤ 50 nM | 300 to 1000 nM | ≤ 50 nM
CS(=O)(=O)c1cncc(-c2ccnc(-c3ncc(C4CCC4)[nH]3)c2)c1 [Example 113, 2′-(5-Cyclobutyl-1H-imidazol-2-yl)-5-(methylsulfonyl)-3,4′-bipyridine trifluoroacetate salt] | ≤ 50 nM | ≤ 300 nM | ≤ 50 nM
CS(=O)(=O)c1cncc(-c2ccnc(-c3ncc(C4CCCC4)[nH]3)c2)c1 [Example 114, 2′-(5-Cyclopentyl-1H-imidazol-2-yl)-5-(methylsulfonyl)-3,4′-bipyridine trifluoroacetate salt] | ≤ 50 nM | ≤ 300 nM | ≤ 50 nM
CS(=O)(=O)c1cncc(-c2ccnc(-c3ncc(Cc4ccccc4)[nH]3)c2)c1 [Example 115, 2′-(5-Benzyl-1H-imidazol-2-yl)-5-(methylsulfonyl)-3,4′-bipyridine trifluoroacetate salt] | ≤ 50 nM | ≤ 300 nM | ≤ 50 nM
Cc1nc(-c2cc(-c3cncc(S(C)(=O)=O)c3)ccn2)[nH]c1C1CC1 [Example 116, 2′-(5-Cyclopropyl-4-methyl-1H-imidazol-2-yl)-5-(methylsulfonyl)-3,4′-bipyridine trifluoroacetate salt] | ≤ 50 nM | ≤ 300 nM | ≤ 50 nM
CCc1[nH]c(-c2cc(-c3cncc(S(C)(=O)=O)c3)ccn2)nc1C [Example 117, 2′-(5-Ethyl-4-methyl-1H-imidazol-2-yl)-5-(methylsulfonyl)-3,4′-bipyridine] | ≤ 50 nM | ≤ 300 nM | ≤ 50 nM
CS(=O)(=O)c1cncc(-c2ccnc(-c3ncc(-c4ccccn4)[nH]3)c2)c1 [Example 118, 5-(Methylsulfonyl)-2′-(5-(pyridin-2-yl)-1H-imidazol-2-yl)-3,4′-bipyridine] | ≤ 50 nM | 300 to 1000 nM | ≤ 50 nM
Cc1[nH]c(-c2cc(-c3cncc(S(C)(=O)=O)c3)ccn2)nc1C(=O)O [Example 119, 5-Methyl-2-(5-(methylsulfonyl)-3,4′-bipyridin-2′-yl)-1H-imidazole-4-carboxylic acid trifluoroacetate salt] | ≤ 50 nM | > 5000 nM | > 500 nM
CS(=O)(=O)c1cncc(-c2ccnc(-c3nc(C4CCCCC4)c(N)[nH]3)c2)c1 [Example 120, 4-Cyclohexyl-2-[5-(methylsulfonyl)-3,4′-bipyridin-2′-yl]-1H-imidazol-5-amine Trifluoroacetate Salt] | ≤ 100 nM | > 5000 nM | ≤ 50 nM
Cc1[nH]c(-c2cc(-c3cncc(S(C)(=O)=O)c3)ccn2)nc1C(F)F [Example 121, 2′-[4-(Difluoromethyl)-5-methyl-1H-imidazol-2-yl]-5-(methylsulfonyl)-3,4′-bipyridine Trifluoroacetate Salt] | ≤ 50 nM | ≤ 300 nM | ≤ 50 nM
Cc1[nH]c(-c2cc(-c3cncc(N4CCOCC4)c3)ccn2)nc1CO [Example 122, [5-Methyl-2-(5-morpholin-4-yl-3,4′-bipyridin-2′-yl)-1H-imidazol-4-yl]methanol] | ≤ 500 nM | 1000 to 5000 nM | ≤ 500 nM
Cc1[nH]c(-c2cc(-c3cncc(N4CCOCC4)c3)ccn2)nc1CCO [Example 123, 2-[5-Methyl-2-(5-morpholin-4-yl-3,4′-bipyridin-2′-yl)-1H-imidazol-4-yl]ethanol] | ≤ 50 nM | ≤ 300 nM | ≤ 50 nM
COC(=O)c1nc(-c2cc(-c3cncc(N4CCOCC4)c3)ccn2)[nH]c1C [Example 125, Methyl 5-methyl-2-(5-morpholin-4-yl-3,4′-bipyridin-2′-yl)-1H-imidazole-4-carboxylate] | ≤ 100 nM | 300 to 1000 nM | ≤ 50 nM
Nc1cncc(-c2ccnc(-c3ncc(-c4ccccc4)[nH]3)c2)c1 [Example 127, 2′-(5-Phenyl-1H-imidazol-2-yl)-3,4′-bipyridin-5-amine Trifluoroacetate Salt] | ≤ 50 nM | 1000 to 5000 nM | ≤ 50 nM
CCS(=O)(=O)Nc1cncc(-c2ccnc(-c3ncc(-c4ccccc4)[nH]3)c2)c1 [Example 130, N-[2′-(5-Phenyl-1H-imidazol-2-yl)-3,4′-bipyridin-5-yl]ethanesulfonamide Trifluoroacetate Salt] | ≤ 50 nM | 300 to 1000 nM | ≤ 50 nM
COCC(=O)Nc1cncc(-c2ccnc(-c3ncc(-c4ccccc4)[nH]3)c2)c1 [Example 131, 2-Methoxy-N-[2′-(5-phenyl-1H-imidazol-2-yl)-3,4′-bipyridin-5-yl]acetamide Trifluoroacetate Salt] | ≤ 50 nM | > 5000 nM | ≤ 50 nM
O=C(Nc1cncc(-c2ccnc(-c3ncc(-c4ccccc4)[nH]3)c2)c1)C1CCCC1 [Example 138, N-(2′-(5-Phenyl-1H-imidazol-2-yl)-3,4′-bipyridin-5-yl)cyclopentanecarboxamide] | ≤ 500 nM | > 5000 nM | ≤ 100 nM

From patent publication US11352340B2, “Pyridine and pyridimine compounds as PI3K-gamma inhibitors” (Incyte Corporation, priority 2016, dated 2022)
